Publication PMC7404270, “Biological Activities of Cyclic and Acyclic B-Type Laxaphycins in SH-SY5Y Human Neuroblastoma Cells” (Marine Drugs, 2020)

Tests used:
[1] = tested on: SH-SY5Y human neuroblastoma cells; experiment: Reactive oxygen species levels (carboxy-H2DCFDA); type: cell-based; conditions: 24 h, 0.001–10 µM
Experimental: ROS production was assessed with the fluorescence dye carboxy-H2DCFDA (5-(and-6)-carboxy-2′,7′-dichlorodihydrofluorescein diacetate). SH-SY5Y cells were seeded in 96-well plates and allowed to grow for 24 h. Then, cells were treated with laxaphycins (0.001–10 µM) for 24 h and ROS levels were measured. SH-SY5Y cells were washed twice with serum-free medium and loaded with 20 µM carboxy-H2DCFDA. Next, the plate was incubated for 1 h at 37 °C. After this time, phosphate buffered saline (PBS) was added to each well during 30 min. The fluorescence was read at 495 nm excitation and 527 nm emission. Experiments were carried out at least three times.

p70 S6 kinase = experiment: Western blot, p70 S6 kinase activation (phosphorylated/total); type: cell-based, human; conditions: SH-SY5Y cells, 24 h; one range given for the three compounds together
Experimental: (§1) SH-SY5Y cells were seeded in 12-well plates and treated with laxaphycins for 24 h. Next, cells were washed with PBS and lysis buffer (50mM Tris HCl, 150 mM NaCl, 1mM EDTA and 1% Triton x-100, supplemented with a complete phosphatase/protease inhibitor cocktail) was added to each well. Cells were scrapped, sonicated and centrifuged at 13,000 rpm at 4 °C for 20 min.
(§2) In both cases, the supernatant was collected as the cytosolic fraction and quantified with the Bradford method. Samples containing 15 µg were used for electrophoresis, resolved in 4–20% sodium dodecyl sulphate polyacrylamide gel (Biorad, Madrid, Spain). Proteins were transferred to PVDF membranes (Merck Millipore) with a Trans-Blot® semi-dry transfer cell (Biorad). Membrane blocking and antibody incubation was performed in Snap i.d. system (Merck Millipore). Protein bands were detected with Supersignal West Pico Luminiscent Substrate and Supersignal West Femto Maximum Sensitivity Substrate (Thermo Fisher Scientific). Chemiluminiscence was determined with Diversity GeneSnap system and software (Syngene). LC3 II/I was detected with the primary antibody anti-LC3 II/I (1:1000, Abcam), the primary antibody anti-pmTOR (Ser2448) (1:1000, Merck Millipore) was used to recognize phospho-mTOR and the total levels of the kinase were determined with anti-mTOR antibody (1:10000, Abcam), beclin-1 was detected with anti-beclin-1 primary antibody (1:1000, Merck Millipore), p62 was quantified with anti-p62 antibody (1:1000, Merck Millipore), anti-phospho-p70 S6 kinase (Thr389) (1:1000, Merck Millipore) was used to detect phospho- p70 and the total levels were quantified using anti-p70 S6 kinase antibody (1:1000, Merck Millipore), anti-phospho-AMPK (Thr172) (1:500, Merck Millipore) was used to recognize the phosphorylated state of the kinase, and the total expression of the enzyme was detected with anti-AMPK antibody (1:500, Merck Millipore). Protein levels were normalized using β-Actin (1:20,000, Millipore). Baf A1 (0.001 µM), Rap (0.1 µM) and Comp C (1 µM) were used as controls for autophagic flux measurements. […]

[2] = tested on: SH-SY5Y human neuroblastoma cells; experiment: LDH cytotoxicity assay (cell viability); type: cell-based; conditions: 24 h, 0.001–10 µM
Experimental: (§3) SH-SY5Y human neuroblastoma cell line was obtained from American Type Culture Collection (ATCC), number CRL2266. Cells were cultured in Dulbecco´s modified Eagle´s medium: Nutrient Mix F-12 (DMEM/F-12) with 10% fetal bovine serum (FBS), 1% glutamax, 100 U/mL penicillin and 100 µg/mL streptomycin. Cells were maintained at 37 °C in a humidified atmosphere of 5% CO2 and 95% air and dissociated weekly using 0.05% trypsin/EDTA. All the reagents were obtained from Thermo Fischer Scientific.
Cell viability was assessed with the LDH test. Cells were seeded in 96-well plates and exposed to different compound concentrations (0.001–10 µM). Cells were incubated with compounds at 37 °C in humidified 5% CO2/95% air atmosphere for 24 h. Quillaja bark saponin was used as cellular death control. Then, cell medium was collected and LDH release was evaluated. Pierce^TM LDH-Cytotoxicity Assay Kit (Thermo Fisher Scientific) was used for LDH determination. Absorbance was measured at 490 nm to determine LDH release to the medium. Experiments were carried out in triplicate at least three independent times.

[3] = tested on: SH-SY5Y human neuroblastoma cells; experiment: ATP levels (Luminescent ATP Detection Kit); type: cell-based; conditions: 0.001–10 µM; for ATP levels at 6 h, in words: 6 h incubation; for ATP levels at 24 h, in words: 24 h incubation
Experimental: ATP levels were determined with the Luminescent ATP Detection Kit (Abcam), following manufacturer´s instructions. Briefly, human neuroblastoma cells were cultured in 96-well plates at 5 × 10^4 cells per well. Cells were treated with compounds as described above during 6 and 24 h, Then, cells were lysed and 50 µL of substrate solution were added to each well. The plate was incubated for 5 min, and the luminescence was measured in a plate reader. Rot at 1 µM was used as positive control.

[4] = tested on: SH-SY5Y human neuroblastoma cells; experiment: Mitochondrial membrane potential (TMRM dye); type: cell-based; conditions: 24 h, 0.001–10 µM
Experimental: ∆Ψm was evaluated with TMRM assay as previously described. SH-SY5Y cells were seeded in 96-well plates at 5 × 10^4 cells per well. After 24 h, cells were treated with compounds (0.001–10 µM) for 24 h. Next, cells were washed twice with saline solution and incubated with 1 µM TMRM for 30 min. Then human neuroblastoma cells were solubilized with 50% DMSO–50% water. Fluorescence values were measured at 535 nm excitation, 590 nm emission with a plate reader. At least three independent replicates were performed in triplicate.

beclin 1 = experiment: Western blot, beclin 1 expression; type: cell-based, human; conditions: SH-SY5Y cells, 24 h; Rap 0.1 µM
Experimental: as §1
In both cases, the supernatant was collected as the cytosolic fraction and quantified with the Bradford method. Samples containing 15 µg were used for electrophoresis, resolved in 4–20% sodium dodecyl sulphate polyacrylamide gel (Biorad, Madrid, Spain). Proteins were transferred to PVDF membranes (Merck Millipore) with a Trans-Blot® semi-dry transfer cell (Biorad). Membrane blocking and antibody incubation was performed in Snap i.d. system (Merck Millipore). Protein bands were detected with Supersignal West Pico Luminiscent Substrate and Supersignal West Femto Maximum Sensitivity Substrate (Thermo Fisher Scientific). Chemiluminiscence was determined with Diversity GeneSnap system and software (Syngene). LC3 II/I was detected with the primary antibody anti-LC3 II/I (1:1000, Abcam), the primary antibody anti-pmTOR (Ser2448) (1:1000, Merck Millipore) was used to recognize phospho-mTOR and the total levels of the kinase were determined with anti-mTOR antibody (1:10000, Abcam), beclin-1 was detected with anti-beclin-1 primary antibody (1:1000, Merck Millipore), p62 was quantified with anti-p62 antibody (1:1000, Merck Millipore), anti-phospho-p70 S6 kinase (Thr389) (1:1000, Merck Millipore) was used to detect phospho- p70 and the total levels were quantified using anti-p70 S6 kinase antibody (1:1000, Merck Millipore), anti-phospho-AMPK (Thr172) (1:500, Merck Millipore) was used to recognize the phosphorylated state of the kinase, and the total expression of the enzyme was detected with anti-AMPK antibody (1:500, Merck Millipore). Protein levels were normalized using β-Actin (1:20,000, Millipore). Baf A1 (0.001 µM), Rap (0.1 µM) and Comp C (1 µM) were used as controls for autophagic flux measurements. All the experiments were performed at least three times in duplicate.

LC3 = experiment: Western blot, LC3II/I ratio; type: cell-based, human; conditions: SH-SY5Y cells, 24 h; Baf A1 0.001 µM, Rap 0.1 µM
Experimental: as §1
(§4) In both cases, the supernatant was collected as the cytosolic fraction and quantified with the Bradford method. Samples containing 15 µg were used for electrophoresis, resolved in 4–20% sodium dodecyl sulphate polyacrylamide gel (Biorad, Madrid, Spain). Proteins were transferred to PVDF membranes (Merck Millipore) with a Trans-Blot® semi-dry transfer cell (Biorad). Membrane blocking and antibody incubation was performed in Snap i.d. system (Merck Millipore). Protein bands were detected with Supersignal West Pico Luminiscent Substrate and Supersignal West Femto Maximum Sensitivity Substrate (Thermo Fisher Scientific). Chemiluminiscence was determined with Diversity GeneSnap system and software (Syngene). […]

AMPK = experiment: Western blot, AMPK activation (phosphorylated/total); type: cell-based, human; conditions: SH-SY5Y cells, 24 h; Comp C 1 µM
Experimental: as §1, §4

[5] = tested on: SH-SY5Y human neuroblastoma cells; experiment: MTT cell metabolic activity assay; type: cell-based; conditions: 24 h, 0.001–10 µM
Experimental: as §3
The effect of laxaphycins on cell metabolic activity was evaluated by MTT (3-(4, 5-dimethyl thiazol-2-yl)-2, 5-diphenyl tetrazolium bromide) assay. SH-SY5Y cells were cultured in 96-well plates and treated with compounds at concentrations ranging from 0.001 to 10 µM for 24 h. Next, cells were rinsed three times and incubated for 1 h with MTT (500 µg/mL) dissolved in saline buffer. MTT excess was washed and cells were disaggregated with 5% sodium dodecyl sulfate. Absorbance of the colored formazan salt was measured at 595 nm in a spectrophotometer plate reader. Cell death control signal was subtracted from the other data.

mTOR = experiment: Western blot, mTOR activation (phosphorylated/total); type: cell-based, human; conditions: SH-SY5Y cells, 24 h; Rap 0.1 µM
Experimental: as §1, §2

caspase 3 = experiment: Caspase 3 activity in cell lysates (EnzCheck kit); type: cell-based, human; conditions: SH-SY5Y cells, 24 h; STS 0.01 µM; percentage of control cells, mean ± SEM
Experimental: The detection of caspase 3 activity was carried out with the EnzCheck® Caspase-3 Assay Kit. Neuroblastoma cells were cultured in 12-well plates at 1 × 10^6 cells per well and treated with compounds. After 24 h, cells were lysed and an aliquot was collected to quantify protein concentration by the Bradford method. Then, the assay was performed following manufacturer’s instructions. Briefly, 50 µL of each sample were mixed with equal volume of Z-DEVD-AMC substrate and incubated for 30 min at room temperature. Then, fluorescence at 342 nm excitation and 441 nm emission was measured. Caspase 3 activity data were corrected by protein concentration values. STS (0.01 µM) was used as positive control.

[6] = tested on: SH-SY5Y human neuroblastoma cells; experiment: Annexin V-FITC / propidium iodide flow cytometry; type: cell-based; conditions: 24 h, 1 at 0.3 µM, 2 at 0.15 µM, STS at 0.01 µM, percentage of total cells, mean ± SEM of three experiments
Experimental: The Annexin V-FITC Apoptosis Detection Kit was used to determine the cell death produced by compounds as previously described. SH-SY5Y cells were seeded in 12-well plates at 1 × 10^6 per well and incubated for 24 h with laxaphycins. Then, cells were washed with PBS and resuspended in Annexin binding buffer containing Annexin V-FITC and PI. Cells were incubated for 15 min at room temperature, resuspended in PBS and filtered. The fluorescence was determined by flow cytometry using the ImageStreamMKII (Amnis Corporation, Luminex Corp, Austin, TX, USA). 10,000 events were analyzed with IDEAS Application 6.0 software (Amnis Corporation, Luminex Corp, Austin, TX, USA). STS (Sigma Aldrich) at 0.01 µM was used as control in this assay.

| Compound | ROS levels (carboxy-H2DCFDA), in words [1] | Cytotoxicity / cell viability (LDH test), in words [2] | ATP levels at 6 h, in words [3] | Mitochondrial membrane potential (∆Ψm, TMRM), in words [4] | Beclin 1 expression, in words (beclin 1) | ATP levels at 24 h, in words [3] | other results |
| --- | --- | --- | --- | --- | --- | --- | --- |
| acyclolaxaphycin B3 [compound 4] | diminishing ROS release | did not display cytotoxicity at any of the concentrations tested | diminishing ROS release and ATP levels at 6 h | depolarizing the mitochondrial membrane at 10 µM | generated an increase in beclin1 expression |  | p70 S6 phosphorylation (p70 S6 kinase): 53.5%–78.6% |
| CO/C1=C\C(C)=C\[C@@H](C)[C@@H](O)[C@@H](C)C/C(C)=C/C=C/[C@H](OC)[C@@H]([C@@H](C)[C@@H](O)[C@H](C)[C@@]2(O)C[C@@H](O)[C@H](C)[C@@H](C(C)C)O2)OC1=O [Baf A1, Bafilomycin A1] |  |  |  |  |  |  | LC3II/I ratio, in words (LC3): increased LC3II/I ratio |
| [des-(Ala^4-Hle^5)] acyclolaxaphycin B3 [compound 6] | decreased ROS release | did not show effects on cell survival | reduced ATP content at 6 h |  | generated an increase in beclin1 expression | recovering it after 24 h | AMPK activation (phospho/total), in words (AMPK): the most active; p70 S6 phosphorylation (p70 S6 kinase): 53.5%–78.6% |
| [des-(Ala^4-Hle^5)] acyclolaxaphycin B [compound 5] | reduced ROS levels at the highest concentrations | did not show effects on cell survival | levels were reduced by 5 after a 6 h incubation | depolarized the mitochondria | generated an increase in beclin1 expression | recovered at 24 h | Cell metabolic activity (MTT), in words [5]: increased cell metabolic activity |
| c1cc(-c2cnn3cc(-c4ccc(OCCN5CCCCC5)cc4)cnc23)ccn1 [Comp C, compound C, reference compound] |  |  |  |  |  |  | AMPK activation (phospho/total), in words (AMPK): inhibited kinase activity |
| CO[C@H]1C[C@@H]2CC[C@@H](C)[C@@](O)(O2)C(=O)C(=O)N2CCCC[C@H]2C(=O)O[C@H]([C@H](C)C[C@@H]2CC[C@@H](O)[C@H](OC)C2)CC(=O)[C@H](C)/C=C(\C)[C@@H](O)[C@@H](OC)C(=O)[C@H](C)C[C@H](C)/C=C/C=C/C=C/1C [Rap, rapamycin, reference compound] |  |  |  |  | augmented its expression |  | mTOR activation (phospho/total), in words (mTOR): reduced mTOR activation; LC3II/I ratio, in words (LC3): increased LC3II/I ratio |
| CN[C@@H]1C[C@H]2O[C@@](C)([C@@H]1OC)n1c3ccccc3c3c4c(c5c6ccccc6n2c5c31)C(=O)NC4 [STS, staurosporine, reference compound] |  |  |  |  |  |  | Caspase 3 activity (caspase 3): 157.8% ± 6%; Apoptotic cells (early and late, Annexin V positive) [6]: 63.3% ± 3.2% |
| acyclolaxaphycin B [compound 3] | reduced ROS and ATP levels at the highest concentrations | did not display cytotoxicity at any of the concentrations tested | reduction in ATP was observed at 6 h | produced a decrease in ∆Ψm | generated an increase in beclin1 expression | recovered at 24 h, reaching levels of control cells | Cell metabolic activity (MTT), in words [5]: significantly augmented cell metabolic activity at 0.1 and 1 µM |
